# Assays:
# [1] = Absorption, distribution and metabolites after oral 14C-EPA-E in rats; type: in vivo
# Protocol: (§1) After administration of ^14C-EPA-E into the ligated intestine of rats, the residual radioactivity in the intestine at 24 hours was only 4.6% of the administered dose. Radioactivity transferred to the plasma and lymph was mainly detected in the triglyceride (TG) fraction in the early phase after dosing, while distribution to the free fatty acid (FFA) fraction was slight at all timepoints. […] Orally administered EPA-E was primarily incorporated in adrenal gland lipids as cholesterol esters of the fatty acids eicosapentaenoic acid (EPA), docosapentaenoic acid (DPA) and docosahexaenoic acid (DHA).
# After oral administration of ^14C-EPA-E to the rat, EPA, DPA and DHA were detected as metabolites in the total lipid fraction of the plasma and tissues (liver, fat, heart and brain). […] In the total lipid fraction of the liver, the radioactivity originated mainly from EPA, DPA and DHA. Thus, it is considered that EPA, DPA and DHA are the predominant metabolites of ^14C-EPA-E in tissues, as constituent fatty acids of the total lipid fraction.
# [2] = system: ligated intestine; test: Administration of 14C-EPA-E into the ligated intestine of rats; type: in vivo; conditions: at 24 hours
# Protocol: as §1
# [3] = Hydrolysis in rat small intestine homogenates, lymph, plasma and liver homogenates; type: in vitro ADME
# [4] = design: species or system dogs; conditions: dog, in vivo, po, 30 mg/kg, 1 week
# Protocol: (§2) Consequently, when EPA-E is administered orally to humans, it would appear that it is well absorbed, even though the unchanged ethyl ester form is not detected, and the free form (EPA) is only detected at a very low level, in the blood. Due to this absorption mechanism of essential fatty acids, the administered EPA-E exists as a blood-constituent fatty acid in the total lipids. In fact, according to the approval package document of Lovaza®, the free form of EPA is undetectable in the circulation (<1 μM) following an oral dose of 4 g of Omacor® (a mixture of the ethyl esters of EPA and DHA) Following oral administration of EPA-E, EPA, DPA and DHA were isolated and identified as metabolites in tissues and plasma. EPA, DPA and DHA were incorporated into TG and PL. Radioactivity was primarily excreted in expired air (44%) after single oral administration at 30 mg/kg EPA-E with minimal excretion in bile and urine (˜3%) and approximately 20% excreted in feces.
# [5] = system: pylorus-ligated rats; test: Gastric fluid levels in pylorus-ligated rats; type: in vivo; conditions: 3000 mg/kg oral dose
# [6] = system: galactosamine-induced steatohepatitis mouse model; test: Galactosamine-induced steatohepatitis mouse model; type: in vivo; conditions: oral administration at 1000 mg/kg
# [7] = system: central nervous, autonomic nervous, respiratory and cardiovascular systems; test: Safety pharmacology studies; type: in vivo; conditions: oral doses up to 3000 mg/kg
# [8] = system: methionine-choline deficient diet rat model of nonalcoholic steatohepatitis; test: Methionine-choline deficient diet rat model of nonalcoholic steatohepatitis; type: in vivo; conditions: repeat oral administration at 1000 mg/kg
# [9] = system: NASH; test: Phase II double blind, placebo-controlled clinical trial of EPA-E in subjects with NASH; type: in vivo, human
# Excerpt: This example provides the protocol used for an ongoing phase II clinical trial, double blind, placebo-controlled study to investigate the safety, efficacy, and pharmacokinetic profile of two doses of EPA-E in subjects with NASH. Up to 70 subjects were enrolled into each treatment arm, for a total of 210 subjects to be enrolled. Block randomization using an interactive voice response system (IVRS) was used to assign patients in a 1:1:1 ratio to two active doses and placebo. Patients were stratified at randomization by presence or absence of diabetes. Patients with diabetes comprised no more than 25% of the total number of patients enrolled. […] Subjects were required to have a liver biopsy with proven NASH in the 6 month period prior to screening. The Pharmacokinetic profile for EPA-E was evaluated in a subgroup of subjects in specified sites. Subjects were approached prior to providing informed consent to determine if they will participate in the PK group subset. Approximately 36 subjects participated in the PK subset evaluation (12 from each treatment arm, to include 6 males and 6 females). Overall study duration plan was 2 years. In order to support the trial, EPA-E capsules and matching placebo capsules were prepared. EPA-E capsule is an oval soft gelatin capsule containing 300 mg of EPA-E as an active ingredient. […] These capsules are unidentifiable as EPA-E capsules or placebo capsules. Subjects were administered orally 3 capsules 3 times daily, immediately after meals. Subjects were potentially included into the study if they met all the following criteria: • 1. Diagnosis of definite NASH by the central reading pathologists: • Liver biopsy slides will be submitted for evaluation by the central pathologists according to one of the following criteria: • a. Previous liver biopsies must have been obtained within 6 months prior to informed consent and should be judged by the local pathologist as showing NAS ≥4 with a minimum score of 1 each for steatosis and lobular inflammation plus […] ballooning OR at least 1a sinusoidal fibrosis AND a finding of possible or definite steatohepatitis • b. For liver biopsies performed after informed consent is obtained, all slides will be submitted for reading by the central pathologists in conformity with the independent pathology review charter (IPRC) • 2. Patients of either gender greater than 18 years of age • 3. Patients with diabetes that have been on stable doses of anti-diabetic agents since at least 6 months prior to liver biopsy may be enrolled • 4. Females must be of non-child bearing potential (surgically sterilized or at least two years post-menopausal) or if of child-bearing potential, must have a negative pregnancy test at screening and agree to use an effective form of contraception during the study and for at least 30 days following the last dose of study medication • 5. Normal ECG or clinically non-significant findings at the Screening and Baseline visits • 6. No significant concomitant medical illness, without any clinically significant physical exam findings and without any clinically significant laboratory findings, as determined by the principal investigator • 7. […] Inability or unwillingness to have a liver biopsy • 2. Diagnosis of cirrhosis by central pathology reviewers • 3. Previous bariatric surgery or biliary diversion (i.e. gastric bypass), esophageal banding and gastric banding • 4. Serum ALT>300 U/L • 5. Subject has used drugs associated with steatohepatitis within 6 months prior to screening (corticosteroids, high dose estrogens, methotrexate, amiodarone, anti-HIV drugs, tamoxifen, diltiazem) • 6. Use of the following anti-NASH agents for more than a 2 week period in the 3 months prior to liver biopsy or the 3 months prior to screening: • a. Vitamin E>60 IU per day • b. Omega-3-acid ethyl esters or omega-3-PUFA-containing supplements >200 mg per day • c. Thiazoledinediones (e.g. pioglitazone) • 7. […]
# [10] = Lipid lowering in animal studies; type: in vivo; conditions: rats, hamsters and rabbits
# [11] = system: diet-induced hepatic steatosis model; test: Mouse diet-induced hepatic steatosis model; type: in vivo; conditions: repeat oral administration at ≥0.1 mg/g
# [12] = system: arteries; test: Preservation of elasticity of arteries; type: in vivo; conditions: rabbits
# [13] = Excretion of radioactivity after single oral administration (rat); type: in vivo, rats
# Protocol: EPADEL is a product containing ethyl all-cis-5,8,11,14,17-eicosapentaenoate (EPA-E), one of the n−3 essential fatty acids. The preclinical absorption, distribution, metabolism and excretion (ADME) characteristics of EPA-E have been determined primarily in rats.
# as §2
# Renal excretion was the elimination route for several minor highly polar metabolites (<0.4%), but EPA-E, EPA, DPA or DHA were not detected in the urine. In feces, EPA-E and EPA, evidently derived from the unabsorbed drug, were detected; however, no DPA or DHA was detected in the feces.
# [14] = system: CYP450; conditions: at free concentrations observed in humans; previous studies; cited from earlier work
# [15] = single oral administration at 30 mg/kg
compound,measurement,setting,value
CC/C=C\C/C=C\C/C=C\C/C=C\C/C=C\CCCC(=O)OCC [^14C-EPA-E],unchanged EPA-E in the plasma or tissues,"[1]; rat, oral administration, plasma, liver, fat, heart and brain",no unchanged EPA-E was found
same,distribution of radioactivity in body tissues,"[1]; rats, oral 14C-EPA-E",widely distributed in the body tissues
same,residual radioactivity in the intestine,[2],4.6 % of the administered dose
same,hydrolysis,[3],hydrolyzed rapidly
"CC/C=C\C/C=C\C/C=C\C/C=C\C/C=C\CCCC(=O)OCC [EPA-E, ethyl all-cis-5,8,11,14,17-eicosapentaenoate]",radioactivity excreted in the urine,[4],1.0%
same,radioactivity recovered in the feces,[4],19.2%
same,gastric fluid levels,[5],reduction in gastric fluid levels
same,progression of steatohepatitis,[6],retarded progression of steatohepatitis
same,triglyceride (TG) accumulation,[6],suppressing triglyceride (TG) accumulation
same,"effect on the central nervous, autonomic nervous, respiratory and cardiovascular systems",[7],no effect
same,absorption,"[1]; single oral dose 30-1000 mg/kg, rats",well-absorbed
same,fibrosis,[8],inhibited fibrosis
same,inflammation and oxidative stress,[8],suppressing inflammation and oxidative stress
same,response rate,"[9]; fasting glucose =<125 mg/dL and HbA1c =<6.4, Study arm 1, FIG. 4",higher response to rate
same,efficacy (responders),"[9]; fasting glucose =<125 mg/dL and HbA1c =<6.4, Study arm 2",equivalent to that of Study arm 1
same,NASH response (change of NAS score),"[9]; patients with GGT levels =<33 IU/L, Study arm 1 and 2, FIG. 9, preliminary",higher efficacy
same,efficacy (preliminary endpoint achievement rate v. GGT),"[9]; patients with GGT levels =<60 IU/L, Study arm 1 and 2, FIG. 8, preliminary",higher efficacy
same,improvement of serum EPA/AA ratio on Day 365,"[9]; patients with GGT ≤33 IU/L, Study arm 2, FIG. 10, preliminary",higher efficacy
same,serum EPA/AA ratio over time,"[9]; patients with GGT ≤33 IU/L, Study arm 2, FIG. 12",significant increase
same,efficacy (responders),"[9]; patients with HbA1c levels =<6.4, Study arm 1, FIG. 2, preliminary",higher efficacy
same,efficacy (responders),"[9]; patients with HbA1c levels =<6.4, Study arm 2, preliminary",equivalent to that of Study arm 1
same,efficacy (responders),"[9]; patients with fasting glucose =<125 mg/dL, Study arm 1, FIG. 3, preliminary",higher efficacy
same,efficacy (responders),"[9]; patients with fasting glucose =<125 mg/dL, Study arm 2, preliminary",equivalent to that of Study arm 1
same,efficacy (responders),"[9]; patients without biliary tract disease markers (GGT ≤33 IU/L), Study arm 1 (600 mg TID) and Study arm 2 (900 mg TID), FIG. 7, preliminary",higher efficacy
same,efficacy (responders: NAS Score ≤3 or improvement of ≥2 across at least 2 of NAS components),"[9]; patients without diabetes or with mild diabetes compared to diabetic patients, Study arm 1 (600 mg EPA-E, TID), FIG. 1, preliminary",higher efficacy
same,efficacy (responders: NAS Score ≤3 or improvement of ≥2 across at least 2 of NAS components),"[9]; patients without diabetes or with mild diabetes, Study arm 2 (900 mg EPA-E, TID), preliminary",equivalent to that of Study arm 1
same,lipids,[10],lower lipids
same,fat accumulation,[11],suppressed fat accumulation
same,hepatic SREBP-1c levels,[11],suppressing hepatic SREBP-1c levels
same,monounsaturated fatty acid (MUFA) synthesis by SCD1,[11],suppressing
same,elasticity of arteries,[12],preserve the elasticity of arteries
same,radioactivity excreted in expired air,"[13]; rat, in vivo, po, 30 mg/kg",44%
same,radioactivity excreted in bile and urine,[13]; [15],~3%
same,radioactivity excreted in feces,[13]; [15],approximately 20%
same,EPA-E in the urine,[13]; urine,not detected
"CC/C=C\C/C=C\C/C=C\C/C=C\C/C=C\CCCC(=O)O [EPA, Eicosapentaenoic acid]",CYP450 inhibition,[14],unlikely to inhibit CYP450

# From patent US10441560B2, “Compositions and methods for treating non-alcoholic steatohepatitis” (priority 2013, dated 2019)
